According to US8124780B2, “Benzimidazole compound” (priority 2005, dated 2012):
Where a name gives a salt, the structure may show the parent alone. Read-outs that look alike come from different tables or passages of the source.

Test system: gastric acid secretion
Test: animal or person
Assay type: in vivo, dog
Conditions: for inhibition in vivo at 1.6 mg/kg / inhibition in vivo at 0.8 mg/kg / inhibition in vivo at 0.2 mg/kg / inhibition in vivo at 0.4 mg/kg / inhibition in vivo at 0.1 mg/kg: Canis lupus familiaris; for inhibition in vivo at 0.1 mg/kg: dose 0.1 mg/kg i.d.
[1] = iv, 24 h, read-out: Persistency of inhibitory effect against gastric acid secretion (%)
[2] = iv, read-out: Inhibitory effect against gastric acid secretion (%)
[3] = dose 0.4 mg/kg i.d., first day, 1 h 40 min to 2 h after administration, histamine i.v., 0.4 mg/kg
[4] = dose 0.4 mg/kg i.d., second day, 24 hours after administration, histamine i.v., 0.4 mg/kg

| SMILES | inhibition in vivo at 1.6 mg/kg [1] [%] | inhibition in vivo at 1.6 mg/kg [2] [%] | inhibition in vivo at 0.8 mg/kg [1] [%] | inhibition in vivo at 0.8 mg/kg [2] [%] | also measured |
| --- | --- | --- | --- | --- | --- |
| CCC1(CCOc2ccnc(C[S+]([O-])c3nc4ccccc4[nH]3)c2C)OCCO1 (stereo not shown) [Example 39, 2-(((4-(2-(2-ethyl-1,3-dioxolan-2-yl)ethoxy)-3-methylpyridin-2-yl)methyl)sulfinyl)-1H-benzimidazole sodium salt] | 86 | 100 |  |  |  |
| Cc1c(OCCC2(C)OCCO2)ccnc1C[S+]([O-])c1nc2ccccc2[nH]1 (stereo not shown) [Example 69, 2-(((3-methyl-4-(2-(2-methyl-1,3-dioxolan-2-yl)ethoxy)pyridin-2-yl)methyl)sulfinyl)-1H-benzimidazole sodium salt] | 78 | 100 |  |  |  |
| Cc1c(OCCC2(C)OCC(C)(C)CO2)ccnc1C[S+]([O-])c1nc2ccccc2[nH]1 (stereo not shown) [Example 34, 2-(((3-methyl-4-(2-(2,5,5-trimethyl-1,3-dioxan-2-yl)ethoxy)pyridin-2-yl)methyl)sulfinyl)-1H-benzimidazole sodium salt] | 78 | 100 |  |  |  |
| Cc1c(OCC2COC3(CCOCC3)OC2)ccnc1C[S+]([O-])c1nc2ccccc2[nH]1 (stereo not shown) [Example 10, 2-(((3-methyl-4-(1,5,9-trioxaspiro[5.5]undec-3-ylmethoxy)pyridin-2-yl)methyl)sulfinyl)-1H-benzimidazole sodium salt] | 87 | 100 | 90 | 98 |  |
| Cc1c(OCC2(C)OCCCO2)ccnc1C[S+]([O-])c1nc2ccccc2[nH]1 (stereo not shown) [Example 33, 2-(((3-methyl-4-((2-methyl-1,3-dioxan-2-yl)methoxy)pyridin-2-yl)methyl)sulfinyl)-1H-benzimidazole sodium salt] | 84 | 100 |  |  |  |
| Cc1c(OCC2COCOC2)ccnc1C[S+]([O-])c1nc2ccccc2[nH]1 (stereo not shown) [Example 53, 2-(((4-(1,3-dioxan-5-ylmethoxy)-3-methylpyridin-2-yl)methyl)sulfinyl)-1H-benzimidazole sodium salt] |  |  | 87 | 99 |  |
| Cc1c(OCCC2COC(C)(C)O2)ccnc1C[S+]([O-])c1nc2ccccc2[nH]1 (stereo not shown) [Example 64, 2-(((4-(2-(2,2-dimethyl-1,3-dioxolan-4-yl)ethoxy)-3-methylpyridin-2-yl)methyl)sulfinyl)-1H-benzimidazole sodium salt] |  |  | 78 | 100 |  |
| Cc1c(OCCC2COC(C)(C)OC2)ccnc1C[S+]([O-])c1nc2ccccc2[nH]1 (stereo not shown) [Example 28, 2-(((4-(2-(2,2-dimethyl-1,3-dioxan-5-yl)ethoxy)-3-methylpyridin-2-yl)methyl)sulfinyl)-1H-benzimidazole sodium salt] | 77 | 94 |  |  |  |
| Cc1ccc2[nH]c([S+]([O-])Cc3nccc(OCCC4COC(C)(C)O4)c3C)nc2c1 (stereo not shown) [Example 47, 2-(((4-(2-(2,2-dimethyl-1,3-dioxolan-4-yl)ethoxy)-3-methylpyridin-2-yl)methyl)sulfinyl)-5-methyl-1H-benzimidazole sodium salt] | 87 | 100 |  |  |  |
| Cc1c(OCC2COC(C)(C)OC2)ccnc1C[S+]([O-])c1nc2ccccc2[nH]1 (stereo not shown) [Example 12, 2-(((4-((2,2-dimethyl-1,3-dioxan-5-yl)methoxy)-3-methylpyridin-2-yl)methyl)sulfinyl)-1H-benzimidazole sodium salt] |  |  | 86 | 100 |  |
| CCC1(COc2ccnc(C[S+]([O-])c3nc4ccccc4[nH]3)c2C)OCCO1 (stereo not shown) [Example 40, 2-(((4-((2-ethyl-1,3-dioxolan-2-yl)methoxy)-3-methylpyridin-2-yl)methyl)sulfinyl)-1H-benzimidazole sodium salt] | 92 | 100 | 66 | 99 |  |
| Cc1c(OCC23COC(C)(OC2)OC3)ccnc1C[S+]([O-])c1nc2ccccc2[n-]1.[Na+] (stereo not shown) [Example 24, 2-(((3-methyl-4-((1-methyl-2,6,7-trioxabicyclo[2.2.2]oct-4-yl)methoxy)pyridin-2-yl)methyl)sulfinyl)-1H-benzimidazole sodium salt] |  |  |  |  | Inhibitory effect against gastric acid secretion (%) (dog, in vivo, iv, 1.6 mg/kg): 88%; Persistency of inhibitory effect against gastric acid secretion (%) (dog, in vivo, iv, 1.6 mg/kg): 80% |
| Cc1c(OCC2OCC3(CC3)CO2)ccnc1C[S+]([O-])c1nc2ccccc2[nH]1 (stereo not shown) [Example 2, 2-(((4-(5,7-dioxaspiro[2.5]oct-6-ylmethoxy)-3-methylpyridin-2-yl)methyl)sulfinyl)-1H-benzimidazole sodium salt] |  |  | 96 | 100 | inhibition in vivo at 0.2 mg/kg [1]: 52%; inhibition in vivo at 0.4 mg/kg [1]: 90%; inhibition in vivo at 0.2 mg/kg [2]: 83%; inhibition in vivo at 0.4 mg/kg [2]: 100% |
| Cc1c(OC2CCC3(CC2)OCC(C)(C)CO3)ccnc1C[S+]([O-])c1nc2ccccc2[nH]1 (stereo not shown) [Example 81, 2-(((4-((3,3-dimethyl-1,5-dioxaspiro[5.5]undec-9-yl)oxy)-3-methylpyridin-2-yl)methyl)sulfinyl)-1H-benzimidazole sodium salt] |  |  | 70 | 96 |  |
| Cc1cnc(C[S+]([O-])c2nc3ccccc3[nH]2)c(C)c1OCC1COC(C)(C)OC1 (stereo not shown) [Example 11, 2-(((4-((2,2-dimethyl-1,3-dioxan-5-yl)methoxy)-3,5-dimethylpyridin-2-yl)methyl)sulfinyl)-1H-benzimidazole sodium salt] |  |  | 89 | 100 | inhibition in vivo at 0.4 mg/kg [1]: 65%; inhibition in vivo at 0.4 mg/kg [2]: 79% |
| CCC1(CCOc2ccnc(C[S+]([O-])c3nc4ccccc4[nH]3)c2C)OCC2(CO1)OCCO2 (stereo not shown) [Example 4, 2-(((4-(2-(8-ethyl-1,4,7,9-tetraoxaspiro[4.5]dec-8-yl)ethoxy)-3-methylpyridin-2-yl)methyl)sulfinyl)-1H-benzimidazole sodium salt] |  |  | 93 | 100 |  |
| Cc1c(OCC2OCC(C)(C)CO2)ccnc1C[S+]([O-])c1nc2ccccc2[nH]1 (stereo not shown) [Example 1, 2-(((4-((5,5-dimethyl-1,3-dioxan-2-yl)methoxy)-3-methylpyridin-2-yl)methyl)sulfinyl)-1H-benzimidazole sodium salt] |  |  | 90 | 100 | inhibition in vivo at 0.4 mg/kg [1]: 76%; inhibition in vivo at 0.4 mg/kg [2]: 94% |
| CCC1(COc2ccnc(C[S+]([O-])c3nc4ccccc4[nH]3)c2C)OCCCO1 (stereo not shown) [Example 42, 2-(((4-((2-ethyl-1,3-dioxan-2-yl)methoxy)-3-methylpyridin-2-yl)methyl)sulfinyl)-1H-benzimidazole sodium salt] |  |  | 72 | 60 |  |
| Cc1cnc(C[S+]([O-])c2nc3ccccc3[n-]2)c(C)c1OCC1COC(C)(C)OC1.[Na+] (stereo not drawn) [Example 19, Sodium salt of an optical isomer (long in retention time) of 2-(((4-((2,2-dimethyl-1,3-dioxan-5-yl)methoxy)-3,5-dimethylpyridin-2-yl)methyl)sulfinyl)-1H-benzimidazole] |  |  |  |  | inhibition in vivo at 0.8 mg/kg (i.d., dose 0.8 mg/kg i.d., first day, 1 h 40 min to 2 h after administration, histamine i.v., read-out: Inhibitory effect against gastric acid secretion (%)): 82%; Inhibitory effect against gastric acid secretion (%) [3]: 13%; Persistency of inhibitory effect against gastric acid secretion (%) [4]: −4%; Persistency of inhibitory effect against gastric acid secretion (%) (dose 0.8 mg/kg i.d., second day, 24 hours after administration, histamine i.v.): 56% |
| Cc1cnc(C[S+]([O-])c2nc3ccccc3[n-]2)c(C)c1OCC1COC(C)(C)OC1.[Na+] (stereo not drawn) [Example 20, Sodium salt of an optical isomer (short in retention time) of 2-(((4-(2,2-dimethyl-1,3-dioxan-5-yl)methoxy-3,5-dimethylpyridin-2-yl)methyl)sulfinyl)-1H-benzimidazole] |  |  |  |  | inhibition in vivo at 0.1 mg/kg (i.d., 24 h, second day, 24 hours after administration, histamine i.v., read-out: Persistency of inhibitory effect against gastric acid secretion (%)): 6%; inhibition in vivo at 0.2 mg/kg (i.d., 24 h, dose 0.2 mg/kg i.d., second day, 24 hours after administration, histamine i.v., read-out: Persistency of inhibitory effect against gastric acid secretion (%)): 46%; inhibition in vivo at 0.1 mg/kg (i.d., first day, 1 h 40 min to 2 h after administration, histamine i.v., read-out: Inhibitory effect against gastric acid secretion (%)): 8%; inhibition in vivo at 0.2 mg/kg (i.d., dose 0.2 mg/kg i.d., first day, 1 h 40 min to 2 h after administration, histamine i.v., read-out: Inhibitory effect against gastric acid secretion (%)): 65%; Inhibitory effect against gastric acid secretion (%) [3]: 97%; Persistency of inhibitory effect against gastric acid secretion (%) [4]: 77%; Inhibitory effect against gastric acid secretion (%) (dose 0.8 mg/kg i.d., first day, 1 h 40 min to 2 h after administration, histamine i.v., 0.8 mg/kg): 100%; Persistency of inhibitory effect against gastric acid secretion (%) (dose 0.8 mg/kg i.d., second day, 24 hours after administration, histamine i.v., 0.8 mg/kg): 89% |
| Cc1c(OCC2COCO2)ccnc1C[S+]([O-])c1nc2ccccc2[nH]1 (stereo not shown) [Example 87, 2-(((4-(1,3-dioxolan-4-ylmethoxy)-3-methylpyridin-2-yl)methyl)sulfinyl)-1H-benzimidazole sodium salt] |  |  | 92 | 100 |  |
| Cc1c(OC2COC(C)(C)OC2)ccnc1C[S+]([O-])c1nc2ccccc2[nH]1 (stereo not shown) [Example 26, 2-(((4-((2,2-dimethyl-1,3-dioxan-5-yl)oxy)-3-methylpyridin-2-yl)methyl)sulfinyl)-1H-benzimidazole sodium salt] | 80 | 100 |  |  |  |
